No end group written: not given here.
Tested on: ob/ob mice
Experiment: Once daily i.p. (Pro3)GIP over 11 days in ob/ob mice (Example 5)
Assay type: in vivo, mouse
Description: Animals. Obese diabetic (ob/ob) mice derived from the colony maintained at Aston University, UK (Bailey, C. J., et al., 1982, Int. J. Obes. 6:11-21) were used at 12-16 weeks of age. Animals were age-matched, divided into groups and housed individually in an air-conditioned room at 22±2° C. with a 12 hour light: 12 hour dark cycle. Drinking water and a standard rodent maintenance diet (Trouw Nutrition, Cheshire, UK) were freely available. All animal experiments were carried out in accordance with the UK Animals (Scientific Procedures) Act 1986.
Experimental protocols for ob/ob mouse studies. Initially, extended biological activity of (Pro^3)GIP was examined in 18-hour fasted ob/ob mice 4 hours after administration. Thereafter, over an 11-day period, mice received once daily i.p. injections (17:00 hours) of either saline vehicle (0.9% (w/v), NaCl) or (Pro^3)GIP (25 nmol/kg body wt). During a subsequent 9-day period, observations were continued following discontinuation of (Pro^3)GIP administration. Food intake and body weight were recorded daily whilst plasma glucose and insulin concentrations were monitored at intervals of 2-6 days. Whole blood for the measurement of glycated hemoglobin was taken on days 11 and 20. Intraperitoneal glucose tolerance (18 mmol/kg body wt), metabolic response to native GIP (25 nmol/kg body wt) and insulin sensitivity (50 U/kg body wt) tests were performed on days 11 and 20. Mice fasted for 18 hours were used to examine the metabolic response to 15 minutes feeding. In a separate series, pancreatic tissues were excised at the end of the 11-day treatment period or 9 days following discontinuation of (Pro^3)GIP and processed for immunohistochemistry or measurement of insulin following extraction with 5 ml/g of ice-cold acid ethanol (750 ml ethanol, 235 ml water, 15 ml concentrated HCl). Blood samples taken from the cut tip of the tail vein of conscious mice at the times indicated in the Figures were immediately centrifuged using a Beckman microcentrifuge (Beckman Instruments, UK) for 30 seconds at 13,000 g. The resulting plasma was then aliquoted into fresh Eppendorf tubes and stored at −20° C. prior to glucose and insulin determinations.
Biochemical analysis. Plasma glucose was assayed by an automated glucose oxidase procedure (Stevens, J. F., 1971, Clin. Chem. Acta 32:199-201) using a Beckman Glucose Analyzer II (Beckman Instruments, Galway, Ireland). Plasma and pancreatic insulin were assayed by a modified dextran-coated charcoal radioimmunoassay (Flatt, P. R. et al., 1981, Diabetologia 20:573-577). Glycated hemoglobin was determined using cation-exchange columns (Sigma, Poole, Dorset, UK) with measurement of absorbance (415 nm) in wash and eluting buffer using a VersaMax Microplate Spectrophotometer (Molecular Devices, Wokingham, Berkshire, UK).
Immunocytochemistry. Tissue fixed in 4% paraformaldehyde/PBS and embedded in paraffin was sectioned at 8 μm. After de-waxing, sections were incubated with blocking serum (Vector Laboratories, Calif., USA) prior to exposure to insulin antibody. Tissue samples were then incubated consecutively with secondary biotinylated universal, pan-specific antibody (Vector Laboratories, Calif., USA) and streptavidin/peroxidase preformed complex (Vector Laboratories, Calif., USA). Following washing, the stained pancreatic tissue was counterstained with hematoxylin (BDH Chemicals, Dorset, UK) and then plunged into acid methanol (500 ml methanol, 500 ml H2O and 2.5 ml concentrated HCl) prior to dehydration and mounting in Depex (BDH Chemicals, Dorset, UK). The stained slides were viewed under a microscope (Nikon Eclipse E2000, Diagnostic Instruments Incorporated, Michigan, USA) attached to a JVC camera Model KY-F55B (JVC, London, UK) and analyzed using Kromoscan imaging software (Kinetic Imaging Limited, Faversham, Kent, UK). […]

[1] = 4 hours after 25 nmoles/kg, 18 h fasted, vs saline

Question: Which results are given for “YAPGTFISDYSIAMDKIHQQDFVNWLLAQKGKKNDWKHNITQ [(Pro^3)GIP]”?
Answer: reduction of non-fasting plasma glucose levels (25 nmol/kg/day i.p., 11 days, vs controls): 1.6 fold; reduction of overall glycemic excursion (AUC) to a glucose load (25 nmol/kg/day i.p., 11 days, vs controls (abstract of Example 5)): 1.6 fold; decrease of AUC insulin in response to native GIP with glucose [1]: 25%; increase of AUC glucose in response to native GIP with glucose [1]: 151%; glycated hemoglobin (9 days following cessation of daily injection): 7.7±0.4%; average islet diameter (11 days treatment): markedly and significantly reduced; enhancement of insulin sensitivity (11 days treatment): 1.6 fold; islet number per pancreatic section (11 days treatment): No significant differences; lowering of overall plasma glucose response to feeding (11 days treatment): 1.4 fold; lowering of overall plasma insulin response to feeding (11 days treatment): 1.5 fold; pancreatic weight (11 days treatment): no effect; plasma insulin AUC 0-60 minutes after i.p. glucose (11 days treatment): significantly decreased; reduction of pancreatic insulin content (11 days treatment): 1.3 fold; reduction of plasma glucose AUC 0-60 minutes after i.p. glucose (11 days treatment, glucose 18 mmoles/kg, vs controls): 2.1 fold; hypoglycemic action of insulin (AUC and post injection values) (11 days treatment, insulin 50 U/kg i.p.): significantly (P<0.05) augmented; pancreatic insulin content (11 days treatment, vs controls): significantly (P<0.05) decreased; glycated hemoglobin (after 11 days treatment): 6.9±0.2%; glycated hemoglobin (before treatment): 8.0±0.3%; body weight (daily 25 nmol/kg, 11 days): no effect; food intake (daily 25 nmol/kg, 11 days): no effect; non-fasting plasma glucose (day 11): significantly reduced; plasma insulin levels (during or after the treatment period): No significant changes; adverse effects (following administration to ob/ob mice): No adverse effects were observed; increase in the glucose-lowering action of exogenous insulin (insulin sensitivity test after 11 days): 57%

Reference: patent US7875587B2, “Peptide analogues of GIP for treatment of diabetes, insulin resistance and obesity” (UUTECH Limited, priority 2004, dated 2011)
